Assay [1] has as its system hematopoietic precursor cells (derived from iPS cell line 1231A2). Briefly: Differentiation induction from iPS cell-derived HPCs to ILC2s, flow cytometry (Experiments 2 and 4). It counts as cell-based, human. The following applies: line 1231A2 HPCs; for induction of ILC2-like cell populations (lineage marker-negative, GATA3-expressing, capacity to produce IL-13): CDK8 inhibitor in medium B Day 6-12 (Senexin A 3 μM; CCT-251921 100 nM), flow cytometry after 12 days; for differentiation induction into ILC2-like cells containing IL-10-producing cells: Condition 2 plus CDK8 inhibitor in medium B Day 6-12 (Compounds 1-3 1 μM, Compound 4 10 μM). On the procedure:
The HPCs prepared from the iPS cells in Experiment 1 were cultured to be differentiation-induced into ILC2s. Specifically, 2500 to 20000 HPC stock cells prepared from the line 1231A2 were seeded in a 96-well plate (Corning, 3799 or Iwaki, 3860-096) coated with 2.5 μg/mL Fc-DLL4 and 2.5 μg/mL RetroNectin™ (Day 0) and cultured at 37° C. in a 5% CO2 atmosphere under the medium conditions shown below for 12 days to be differentiation-induced. In the differentiation induction culture for 12 days, 100 μL of medium was added on Day 3, followed by medium replacement on Day 6 and Day 9. If the cells in each culture well are confluent after the medium replacement on Day 6 and Day 9, the cells in the well were suspended, 2-fold diluted, and reseeded in a new 96-well plate. In the cases of Conditions 2 to 4, IL-2 (BioLegend, 589108 or PeproTech, 200-02) was added to medium A at 200 U/mL. In the case of Condition 3, Senexin A (Selleck, S8520) was added to medium B at 3 μM as CDK8 inhibitor. In the case of Condition 4, CCT-251921 (MedChemExpress, HY-19984) was added to medium B at 100 nM as CDK8 inhibitor. The differentiated cells cultured as described above were stimulated at 37° C. in a 5% CO2 atmosphere for 4 to 6 hours using the following: • IL-1β (PeproTech, 200-01B), final concentration: 10 ng/ml. • IL-2, final concentration: 20 ng/ml. • IL-7, final concentration: 50 ng/ml. • IL-23 (BioLegend, 574106), final concentration: 20 ng/ml • IL-25 (IL-17E) (PeproTech, 200-24), final concentration: 20 ng/ml • eBioscience™ Cell Stimulation Cocktail (plus Protein transport inhibitor) (Thermo Fisher Scientific, 00-4975-03) The stimulated cells were subsequently stained and analyzed with an LSRFortessa™ Cell Analyzer (BD Biosciences) by flow cytometry. […] The present experiment confirmed the differentiation induction into ILC2s using multiple CDK8 inhibitors having different structures.
In general terms: A flow cytometer gives signals particle by particle.

Assay [2] relates to HPCs derived from the line Ff-101s04. Briefly: Differentiation induction from iPS cell-derived HPCs to ILC2s, different iPS cell line (Experiment 3). The following applies: HPCs from iPS line Ff-101s04; Condition 3 (3 μM Senexin A), Condition 4 (100 nM CCT-251921). The assay is classed as cell-based, human.
For assay [3], the system named is iPS cell-derived HPCs differentiation culture. Briefly: Concentrations of cytokines in differentiation culture supernatant containing iPS cell-derived ILC2s (Experiment 6). The assay is classed as cell-based, human. The note with it: Day 12 culture supernatant; Condition 3 versus Conditions 1 and 2. From the text: The culture supernatant of Day 12 of the culture was collected that was differentiation-induced under “Condition 1”, “Condition 2”, and “Condition 3” described in Experiment 2, followed by the quantification of concentrations of IL-10, IL-5, and amphiregulin in the culture supernatant with the following kits, respectively. Amphiregulin is a cytokine that plays a central role in the capacity of ILC2s to repair tissue. It is conceivable that ILC2s having the capacity to repair tissue were obtained in the case where amphiregulin increased in concentration. • IL-10: Human IL-10 immunoassay kit (PerkinElmer, AL218C) • IL-5: Human IL-5 immunoassay kit (PerkinElmer, AL267C) • Amphiregulin: Human Amphiregulin Quantikine ELISA Kit (R&D Systems, DAR00)
IL-10 and IL-5 were measured with an Envision (Revvity). Amphiregulin was measured with a Powerscan4 (DS pharma biomedical Co., LTD.).

In assay [4] the test system is human cord blood-derived CD34-positive cells. As to the kind of experiment: Differentiation induction from human cord blood-derived CD34-positive HPCs to ILC2s (Experiment 5). The assay is classed as cell-based. The following applies: Condition 3 (3 μM Senexin A), flow cytometry on Day 19. From the text: In order to ascertain the versatility of the method for differentiation induction in Experiment 2, the present experiment confirmed the differentiation induction from HPCs derived from the human body to ILC2s. Specifically, ILC2s were differentiation-induced by culturing purchased human cord blood-derived CD34-positive cells (Lonza, 2C-101) with the methods of Condition 1, Condition 2, and Condition 3 in Experiment 2. In the present experiment, the medium was also replaced with the same medium as on Days 6 to 12 on Day 12 and Day 15 of the culture, and the cells in each culture well were 2-fold diluted and reseeded in the case where the cells in the culture well were confluent.

The structures appear in SMILES notation.

As to `Cn1ncc2cc(-c3cnc(N)c(Cl)c3N3CCC4(CCNC4=O)CC3)ccc21` [CCT-251921], in assay [1], the “induction of ILC2-like cell populations (lineage marker-negative, GATA3-expressing, capacity to produce IL-13)” value is on record as “ILC2-like cell populations were induced” and the “differentiation induction into ILC2-like cells containing IL-10-producing cells” value was “observed”. Further, the “differentiation induction of ILC2-like cells containing IL-10-producing cells” value in assay [2] was “ILC2-like cells containing IL-10-producing cells were differentiation-induced”.

On to `N#Cc1ccc2ncnc(NCCc3ccccc3)c2c1` [Senexin A], for which, in assay [3], the “production of IL-5 in the culture supernatant” value is “enhancement of production”, the “production of IL-10 in the culture supernatant” value is reported as “enhancement of production” and the “production of amphiregulin in the culture supernatant” value is “enhancement of production”. In assay [1], the “induction of ILC2-like cell populations (lineage marker-negative, GATA3-expressing, capacity to produce IL-13)” value is listed as “ILC2-like cell populations were induced” and the “differentiation induction into ILC2-like cells containing IL-10-producing cells” value was “observed”. Besides, the “capacity of the induced ILC2-like cells to produce IL-10” value in assay [1] (Condition 3, 3 μM Senexin A in medium B Day 6-12) is “had the capacity to produce IL-10”. The “differentiation induction of ILC2-like cells containing IL-10-producing cells” value in assay [4] is “ILC2-like cells containing IL-10-producing cells were differentiation-induced”. Further, the “differentiation induction of ILC2-like cells containing IL-10-producing cells” value in assay [2] is given as “ILC2-like cells containing IL-10-producing cells were differentiation-induced”.

The values are drawn from patent US20260286297A1, “METHOD FOR PRODUCING GROUP 2 INNATE LYMPHOID CELLS” (KYOTO UNIVERSITY, priority 2023, published 2026).
